Laboratory results taken from ChEMBL document CHEMBL5226365, “Xylochemical Synthesis and Biological Evaluation of the Orchidaceous Natural Products Isoarundinin I, Bleochrin F, Blestanol K, and Pleionol” (J Nat Prod, 2023).

Tests used:
[1] = Cytotoxicity against human PBMC assessed as cell viability at 100 uM incubated for 72 hrs by resazurin assay; format: toxicity, cell-based
ADR5000 cell line = test: Cytotoxicity against human CEM/ADR5000 cells overexpressing P-gp assessed as inhibition of cell growth incubated for 72 hrs by resazurin assay; format: functional, cell-based; settings: ADR5000, 72 h
CCRF-CEM = test: Cytotoxicity against human CCRF-CEM cells assessed as inhibition of cell growth incubated for 72 hrs by resazurin assay; format: functional, cell-based
[2] = Resistance index, ratio of IC50 for cytotoxicity against human CEM/ADR5000 cells overexpressing P-gp to IC50 for cytotoxicity against human CCRF-CEM cells; format: functional

Row | SMILES | Activity [1] | IC50 (ADR5000 cell line) | IC50 (CCRF-CEM) | Ratio IC50 [2]
1 | COc1cc(O)cc(CCc2cccc(O)c2)c1Cc1ccc(O)cc1 | Non-Toxic | 60.4 µM | 43.4 µM | 1.4
2 | COc1cc(O)c(Cc2ccc(O)cc2)c2c1C(c1ccc(O)cc1)c1ccc(O)cc1CC2 (racemic) | Non-Toxic | 47.8 µM | 6.7 µM | 7.1
3 | COc1cc(C2c3ccc(O)cc3CCc3cc(O)cc(OC)c32)ccc1O (stereo unspecified) | Non-Toxic | 17.2 µM | 18.7 µM | 0.9
4 | COc1cccc2c1C(=O)c1c(O)c3c(c(O)c1C2=O)C[C@@](O)(C(=O)CO)C[C@@H]3O[C@H]1C[C@H](N)[C@H](O)[C@H](C)O1 [DOXORUBICIN] | – | – | – | >1000
5 | COc1cc(O)cc2c1C(c1ccc(O)cc1)c1ccc(O)cc1CC2 (racemic) | Non-Toxic | > 100 µM | 45.7 µM | –
